We go through two compounds from paper PMC10017428, “Structure of VanS from vancomycin-resistant enterococci: A sensor kinase with weak ATP binding” (The Journal of Biological Chemistry, 2023).

Structures are written as SMILES.

In assay [1] the target is T1, VanSA CA domain (Enterococcus faecium, UniProt Q06240).
T1 construct: gene vanS
Description: biochemical.

Assay [2] deals with T2, VanSC CA domain (Enterococcus gallinarum, UniProt Q9KJT3). Description: biochemical.
Assay [3] deals with EnvZ CA domain (Escherichia coli, UniProt P0AEJ4). As to the kind of experiment: biochemical.
Sequence of EnvZ CA domain (P0AEJ4 289-450): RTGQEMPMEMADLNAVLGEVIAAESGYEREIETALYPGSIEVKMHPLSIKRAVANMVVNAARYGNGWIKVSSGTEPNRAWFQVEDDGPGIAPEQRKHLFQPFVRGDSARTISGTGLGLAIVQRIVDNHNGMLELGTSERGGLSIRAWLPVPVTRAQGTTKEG
The target in assay [4] is T2, VanSC CA domain. As to the kind of experiment: TNP-ATP displacement, fluorescence. It is filed as binding. To be noted: 50 mM Tris-Cl pH 7.5, 50 mM KCl, 5 mM MgCl2, 10 μM TNP-ATP; competitive.
Assay [5] concerns the target T1, VanSA CA domain. As to the kind of experiment: TNP-ATP displacement, fluorescence. The format is binding. Particulars: 50 mM Tris-Cl pH 7.5, 50 mM KCl, 5 mM MgCl2, 10 μM TNP-ATP; competitive.

T1 sequence (Q06240 221-384): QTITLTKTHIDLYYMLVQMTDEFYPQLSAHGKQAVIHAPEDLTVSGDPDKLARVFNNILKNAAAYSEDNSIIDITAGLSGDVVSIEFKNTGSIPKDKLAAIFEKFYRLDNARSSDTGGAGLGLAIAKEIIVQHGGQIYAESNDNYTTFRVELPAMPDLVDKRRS
T2 sequence (Q9KJT3 208-361): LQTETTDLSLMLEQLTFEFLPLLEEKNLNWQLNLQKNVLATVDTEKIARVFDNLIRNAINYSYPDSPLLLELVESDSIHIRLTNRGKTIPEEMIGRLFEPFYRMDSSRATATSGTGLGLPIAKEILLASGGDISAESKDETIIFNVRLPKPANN

As for `Nc1ncnc2c1ncn2[C@@H]1O[C@H](COP(=O)(O)OP(=O)(O)OP(=O)(O)O)[C@@H](O)[C@H]1O` [ATP], the results for the dissociation constant Kd in assay [1], in assay [2] and in assay [3] were 3.948 ± 0.001 mM, 3.128 ± 0.0004 mM and 0.0833 ± 0.0002 mM, respectively.
Turning to `Nc1nc2c(ncn2[C@@H]2O[C@H](COP(=O)(O)OP(=O)(O)OP(=O)(O)O)[C@@H](O)[C@H]2O)c(=O)[nH]1` [GTP], the “TNP-ATP displacement, fluorescence” value in assay [4] is “GTP bound less tightly than ATP to both VanSA and VanSC”; in assay [5], “GTP bound less tightly than ATP to both VanSA and VanSC”.
